Earlier results, collected in US7435726B2, “Compositions and methods for the treatment of cancer” (Celgene Corporation, priority 2001, dated 2008).

Conditions: irinotecan monotherapy, expected frequency

Abdominal colic/pain, Expected (%) Grade 1-4: 23.7%
Abdominal colic/pain, Expected (%) Grade 3-4: 2.3%
Asthenia, Expected (%) Grade 1-4: 75.7%
Asthenia, Expected (%) Grade 3-4: 12.2%
Constipation, Expected (%) Grade 1-4: 29.9%
Constipation, Expected (%) Grade 3-4: 2.0%
Diarrhea (Late), Expected (%) Grade 1-4: 87.8%
Diarrhea (Late), Expected (%) Grade 3-4: 30.6%
Nausea, Expected (%) Grade 1-4: 86.2%
Vomiting, Expected (%) Grade 1-4: 66.8%
Vomiting, Expected (%) Grade 3-4: 12.5%
Compound: CCc1c2c(nc3ccc(OC(=O)N4CCC(N5CCCCC5)CC4)cc13)-c1cc3c(c(=O)n1C2)COC(=O)[C@]3(O)CC [Irinotecan, (4S)-4,11-diethyl-4-hydroxy-9-[(4-piperidino-piperidino)carbonyl-oxy]1H-pyranol-[3′,4′:6,7]indolizinol[1,2-b]quinoline-3,14-(4H,12H)dione]
